{
  "source": "patent US8846863B2",
  "about": "“Heat stable protein ingredients” (University of Tennessee Research Foundation, priority 2010, dated 2014)",
  "test": "Thymol solubility / dispersion in deionized water",
  "format": "physicochemical",
  "settings": "suspended at […] in deionized water",
  "data": [
    {"smiles": "Cc1ccc(C(C)C)c(O)c1", "note": "[thymol, 2-Isopropyl-5-methylphenol]", "values": [
      {"measurement": "Appearance of suspension", "value": "showed insoluble particulates"}
    ]}
  ]
}
